Usually IC50 stands for the concentration needed to halve the response being measured.

The target in one assay is T1, PI3Kγ (Homo sapiens, UniProt P48736).
T1 construct: host or cells: THP-1
The assay can be described thus: PI3Kγ cellular assay in THP-1 cells (AKT pS473 AlphaLISA). Type of assay: cell-based. A digest of the protocol:
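Serum-starved THP-1 cells (1.8×10^5/well, serum-free DMEM) treated with compounds from 4 nM to 30 μM in 2% DMSO, then stimulated and lysed.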

The target in the next assay is T2, PI3Kγ (p120γ) (Homo sapiens, UniProt P48736).
T2 construct: purchased Promega V1761
T2 sequence (P48736 whole entry): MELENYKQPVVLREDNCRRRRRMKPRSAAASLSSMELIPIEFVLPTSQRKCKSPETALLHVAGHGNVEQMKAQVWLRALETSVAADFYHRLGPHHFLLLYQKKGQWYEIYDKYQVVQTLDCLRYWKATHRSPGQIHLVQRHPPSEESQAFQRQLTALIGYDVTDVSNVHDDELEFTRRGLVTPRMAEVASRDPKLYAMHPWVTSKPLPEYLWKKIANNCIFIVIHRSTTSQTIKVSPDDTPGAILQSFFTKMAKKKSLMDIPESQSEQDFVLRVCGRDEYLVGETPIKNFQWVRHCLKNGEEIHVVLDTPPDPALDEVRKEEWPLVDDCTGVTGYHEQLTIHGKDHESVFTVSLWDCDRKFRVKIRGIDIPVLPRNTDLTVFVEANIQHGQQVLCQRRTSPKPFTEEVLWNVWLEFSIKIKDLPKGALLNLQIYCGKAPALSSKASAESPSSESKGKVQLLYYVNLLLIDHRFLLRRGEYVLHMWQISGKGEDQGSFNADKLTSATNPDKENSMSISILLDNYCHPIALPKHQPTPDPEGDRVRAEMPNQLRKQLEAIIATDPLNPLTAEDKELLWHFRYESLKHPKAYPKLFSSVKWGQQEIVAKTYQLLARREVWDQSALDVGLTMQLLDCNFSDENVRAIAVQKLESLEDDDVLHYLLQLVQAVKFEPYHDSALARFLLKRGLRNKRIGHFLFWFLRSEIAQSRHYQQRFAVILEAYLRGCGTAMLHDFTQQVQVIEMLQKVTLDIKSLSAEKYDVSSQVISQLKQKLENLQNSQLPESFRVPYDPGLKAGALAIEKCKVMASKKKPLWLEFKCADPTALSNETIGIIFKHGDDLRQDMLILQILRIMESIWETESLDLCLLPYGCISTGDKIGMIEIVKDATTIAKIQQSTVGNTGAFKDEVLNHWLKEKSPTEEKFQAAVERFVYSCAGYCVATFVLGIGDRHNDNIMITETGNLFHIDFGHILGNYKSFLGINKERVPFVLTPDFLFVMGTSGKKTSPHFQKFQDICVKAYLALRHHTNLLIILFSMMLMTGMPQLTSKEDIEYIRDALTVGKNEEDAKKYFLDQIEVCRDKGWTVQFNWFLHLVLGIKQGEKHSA
The assay can be described thus: Inhibition of PI3K kinase activity (ADP Glo), PI3Kγ. As to conditions: read-out: biochemical potency (PI3Kγ IC50). An outline of the steps: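 Recombinant p120γ (8 nM, 2× stock) was preincubated with compound for 1 h at rt in HEPES pH 7.4, NaCl, MgCl2 and 0.05% BSA. Reaction was started with PIP2 (0.1 mg/ml, 2×) and ATP (50 μM, 2×) and ran 60 min at rt. ADP formed was read by ADP-Glo luminescence, and IC50 came from a 4-parameter fit.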

[1] abbreviates: Table 1, rhMCP-1 stimulated AKT pS473, read-out: cellular potency (PI3Kγ IC50).
Where [2] appears, read: Table 3, rhMCP-1 stimulated AKT pS473, read-out: cellular potency (PI3Kγ IC50).
Where [3] appears, read: Table 6, rhMCP-1 stimulated AKT pS473, read-out: cellular potency (PI3Kγ IC50).
The mark [4] stands for this setting: Table 2, rhMCP-1 stimulated AKT pS473, read-out: cellular potency (PI3Kγ IC50).

Like-named read-outs stand apart in the source and are kept apart here.

T1 sequence (P48736 whole entry): as above

Turning to `C[C@@H](C1CC1)N1Cc2cc3cc(c2C1=O)OCCOCCNC(=O)c1c(N)nn2ccc-3nc12` [Example 71, 6-[(S)-1-Cyclopropylethyl]-19-amino-10.13-dioxa-6.16.20.21.24-pentaazapentacyclo[16.5.2.12,9.04,8.021,25]hexacosa-1(24),2,4(8),9(26),18(25),19,22-heptaene-7,17-dione], the IC50 on PI3Kγ (setting [1]) is below 100 nM; on PI3Kγ (p120γ) (Table 1, p120γ) it was below 100 nM.

Turning to `C[C@@H](C1CC1)N1Cc2cc(-c3ccn4nc(N)c(C(=O)NCCCCO)c4n3)cc(C(F)(F)F)c2C1=O` [Example 58, 2-[(S)-1-Cyclopropylethyl]-5-{2-amino-3-[(4-hydroxybutylamino)carbonyl]-1,4,7a-triaza-5-indenyl}-7-(trifluoromethyl)-1-isoindolinone], the IC50 on PI3Kγ (setting [1]) is below 100 nM; on PI3Kγ (p120γ) (Table 1, p120γ), below 100 nM.

For the compound `C[C@@H](C1CC1)N1Cc2cc(-c3ccn4nc(N)c(C(=O)NC5(CO)COC5)c4n3)cc(C(F)(F)F)c2C1=O` [Example 338], the IC50 at PI3Kγ (setting [2]) is 100 to 1000 nM; at PI3Kγ (p120γ) (Table 3, p120γ), below 100 nM.

On to `C[C@H](CO)NC(=O)c1c(N)nn2ccc(-c3cc4c(c(O[C@H](C)C(F)(F)F)c3)C(=O)N([C@@H](C)C3CC3)C4)nc12` [Example 440], for which the half-inhibitory concentration (IC50) is 100 to 1000 nM on PI3Kγ (setting [3]) and below 100 nM at PI3Kγ (p120γ) (Table 6, p120γ).

On to `Cc1cc(-c2ccn3nc(N)c(C(=O)Nc4cnn(C5CC5)c4)c3n2)cc2c1C(=O)N([C@@H](C)C1CC1)C2` [Example 294], for which the IC50 on PI3Kγ (setting [4]) is 100 to 1000 nM; at PI3Kγ (p120γ) (Table 2, p120γ) it was below 100 nM.

On to `C[C@@H](C1CC1)N1Cc2cc(-c3ccn4nc(N)c(C(=O)NC5CC5)c4n3)cc(C#N)c2C1=O` [Example 451], for which the IC50 at PI3Kγ (setting [3]) is 100 to 1000 nM; on PI3Kγ (p120γ) (Table 6, p120γ) it was below 100 nM.

`Cc1cc(-c2ccn3nc(N)c(C(=O)NCc4ccn(C)n4)c3n2)cc2c1C(=O)N([C@@H](C)C1CC1)C2` [Example 207]: the IC50 was 100 to 1000 nM at PI3Kγ (setting [4]) and below 100 nM on PI3Kγ (p120γ) (Table 2, p120γ).

For `C[C@@H](C1CC1)N1Cc2cc(-c3ccn4nc(N)c(C(=O)N[C@H]5CC[C@@](C)(O)CC5)c4n3)cc(C(C)(C)O)c2C1=O` [Example 171, 2-Amino-5-{2-[(1S)-1-cyclopropylethyl]-7-(2-hydroxypropan-2-yl)-1-oxo-2,3-dihydro-1H-isoindol-5-yl}-N-[cis-4-hydroxy-4-methylcyclohexyl]pyrazolo[1,5-a]pyrimidine-3-carboxamide], the IC50 at PI3Kγ (setting [1]) was below 100 nM; at PI3Kγ (p120γ) (Table 1, p120γ), below 100 nM.

Consider `CC[C@H](N1Cc2cc(-c3ccn4nc(N)c(C(=O)NC5(C)COC5)c4n3)cc(NS(C)(=O)=O)c2C1=O)C(F)(F)F` [Example 125, 2-Amino-5-{7-methanesulfonamido-1-oxo-2-[(2S)-1,1,1-trifluorobutan-2-yl]-2,3-dihydro-1H-isoindol-5-yl}-N-(3-methyloxetan-3-yl)pyrazolo[1,5-a]pyrimidine-3-carboxamide], for which the IC50 at PI3Kγ (setting [1]) was below 100 nM; at PI3Kγ (p120γ) (Table 1, p120γ), below 100 nM.

Consider `Cc1cc(-c2ccn3nc(N)c(C(=O)NCC(F)(F)F)c3n2)cc2c1C(=O)N([C@@H](C)C1CC1)C2` [Example 222], for which the IC50 on PI3Kγ (setting [4]) is 100 to 1000 nM; at PI3Kγ (p120γ) (Table 2, p120γ) it was below 100 nM.

As for `C[C@@H](C1CC1)N1Cc2cc(-c3ccn4nc(N)c(C(=O)N[C@@H](CO)C(F)(F)F)c4n3)cc(C(F)(F)F)c2C1=O` [Example 361], the IC50 at PI3Kγ (setting [2]) was 100 to 1000 nM; at PI3Kγ (p120γ) (Table 3, p120γ) it was below 100 nM.

In the case of `C[C@@H](C1CC1)N1Cc2cc(-c3ccn4nc(N)c(C(=O)Nc5ccccc5)c4n3)cc(NS(C)(=O)=O)c2C1=O` [Example 104, (S)-2-Amino-5-(2-(1-cyclopropylethyl)-7-(methylsulfonamido)-1-oxoisoindolin-5-yl)-N-phenylpyrazolo[1,5-a]pyrimidine-3-carboxamide], the IC50 on PI3Kγ (setting [1]) was below 100 nM; on PI3Kγ (p120γ) (Table 1, p120γ), below 100 nM.

With `C[C@H](N1Cc2cc(-c3ccn4nc(N)c(C(=O)NC5COC5)c4n3)cc(NS(C)(=O)=O)c2C1=O)C(F)(F)F` [Example 116, 2-Amino-5-{7-methanesulfonamido-1-oxo-2-[(2S)-1,1,1-trifluoropropan-2-yl]-2,3-dihydro-1H-isoindol-5-yl}-N-(oxetan-3-yl)pyrazolo[1,5-a]pyrimidine-3-carboxamide], the IC50 on PI3Kγ (setting [1]) is below 100 nM; on PI3Kγ (p120γ) (Table 1, p120γ), below 100 nM.

Take `Cc1cc(-c2ccn3nc(N)c(C(=O)NC4(C)COC4)c3n2)cc2c1C(=O)N(C(C)(C)CO)C2` [Example 314]: the IC50 at PI3Kγ (setting [4]) was 100 to 1000 nM; on PI3Kγ (p120γ) (Table 2, p120γ), below 100 nM.

For the compound `C[C@@H](C1CC1)N1Cc2cc(-c3ccn4nc(N)c(C(=O)NC5CC5)c4n3)cc(NS(C)(=O)=O)c2C1=O` [Example 87, 2-Amino-N-cyclopropyl-5-{2-[(1S)-1-cyclopropylethyl]-7-methanesulfonamido-1-oxo-2,3-dihydro-1H-isoindol-5-yl}pyrazolo[1,5-a]pyrimidine-3-carboxamide], the IC50 on PI3Kγ (setting [1]) was below 100 nM; at PI3Kγ (p120γ) (Table 1, p120γ), below 100 nM.

Regarding `Cc1cc(-c2ccn3nc(N)c(C(=O)NC4CC4)c3n2)cc2c1C(=O)N([C@@H](C1CC1)C(F)(F)F)C2` [Example 301], the IC50 on PI3Kγ (setting [4]) was 100 to 1000 nM; at PI3Kγ (p120γ) (Table 2, p120γ), below 100 nM.

Take `C[C@@H](C1CC1)N1Cc2cc(-c3ccn4nc(N)c(C(=O)N[C@@H]5CCC[C@H](N(C)C)C5)c4n3)cc(OC(F)(F)F)c2C1=O` [Example 34, 2-Amino-5-{2-[(1S)-1-cyclopropylethyl]-1-oxo-7-(trifluoromethoxy)-2,3-dihydro-1H-isoindol-5-yl}-N-[(1R,3S)-3-(dimethylamino)cyclohexyl]pyrazolo[1,5-a]pyrimidine-3-carboxamide]: the IC50 at PI3Kγ (setting [1]) was below 100 nM; on PI3Kγ (p120γ) (Table 1, p120γ), below 100 nM.

As for `C[C@@H](C1CC1)N1Cc2cc(-c3ccn4nc(N)c(C(=O)Nc5ccncc5)c4n3)cc(OC(F)(F)F)c2C1=O` [Example 40, (S)-2-Amino-5-(2-(1-cyclopropylethyl)-1-oxo-7-(trifluoromethoxy)isoindolin-5-yl)-N-(pyridin-4-yl)pyrazolo[1,5-a]pyrimidine-3-carboxamide], the IC50 was below 100 nM at PI3Kγ (setting [1]) and below 100 nM at PI3Kγ (p120γ) (Table 1, p120γ).

Turning to `C[C@@H](C1CC1)N1Cc2cc(-c3ccn4nc(N)c(C(=O)N[C@H]5CC[C@@](C)(O)CC5)c4n3)cc(S(C)(=O)=O)c2C1=O` [Example 131, 2-Amino-5-{2-[(1S)-1-cyclopropylethyl]-7-methanesulfonyl-1-oxo-2,3-dihydro-1H-isoindol-5-yl}-N-[cis-4-hydroxy-4-methylcyclohexyl]pyrazolo[1,5-a]pyrimidine-3-carboxamide], the IC50 on PI3Kγ (setting [1]) was below 100 nM; on PI3Kγ (p120γ) (Table 1, p120γ), below 100 nM.

On to `C[C@@H](C1CC1)N1Cc2cc(-c3ccn4nc(N)c(C(=O)N[C@H]5CC[C@](O)(C(F)(F)F)CC5)c4n3)cc(C(F)(F)F)c2C1=O` [Example 55, 2-[(S)-1-Cyclopropylethyl]-5-(2-amino-3-{[cis-4-hydroxy-4-(trifluoromethyl)cyclohexylamino]carbonyl}-1,4,7a-triaza-5-indenyl)-7-(trifluoromethyl)-1-isoindolinone], for which the IC50 on PI3Kγ (setting [1]) was below 100 nM; at PI3Kγ (p120γ) (Table 1, p120γ), below 100 nM.

For `Cc1cc(-c2ccn3nc(N)c(C(=O)N[C@H]4CCC[C@H]4O)c3n2)cc2c1C(=O)N([C@@H](C)C1CC1)C2` [Example 264], the IC50 at PI3Kγ (setting [4]) was 100 to 1000 nM; on PI3Kγ (p120γ) (Table 2, p120γ), below 100 nM.

In the case of `C[C@@H](C1CC1)N1Cc2cc(-c3ccn4nc(N)c(C(=O)NC5(C#N)COC5)c4n3)cc(NS(C)(=O)=O)c2C1=O` [Example 80, 2-Amino-N-(3-cyanooxetan-3-yl)-5-{2-[(1S)-1-cyclopropylethyl]-7-methanesulfonamido-1-oxo-2,3-dihydro-1H-isoindol-5-yl}pyrazolo[1,5-a]pyrimidine-3-carboxamide], the IC50 on PI3Kγ (setting [1]) was below 100 nM; on PI3Kγ (p120γ) (Table 1, p120γ), below 100 nM.

`C[C@@H](C1CC1)N1Cc2cc(-c3ccn4nc(N)c(C(=O)N[C@H]5CCC[C@@H](N)C5)c4n3)cc(C(F)(F)F)c2C1=O` [Example 366]: the IC50 on PI3Kγ (setting [2]) was above 1000 nM; on PI3Kγ (p120γ) (Table 3, p120γ) it was below 100 nM.

On to `Cc1cc(-c2ccn3nc(N)c(C(=O)NC4COC4)c3n2)cc2c1C(=O)N([C@@H](C)C1CC1)C2` [Example 180], for which the IC50 is 100 to 1000 nM at PI3Kγ (setting [4]) and below 100 nM at PI3Kγ (p120γ) (Table 2, p120γ).

In the case of `C[C@@H](C1CC1)N1Cc2cc(-c3ccn4nc(N)c(C(=O)NC5CC5)c4n3)cc(OC3CC(F)(F)C3)c2C1=O` [Example 157, 2-Amino-N-cyclopropyl-5-{2-[(1S)-1-cyclopropylethyl]-7-(3,3-difluorocyclobutoxy)-1-oxo-2,3-dihydro-1H-isoindol-5-yl}pyrazolo[1,5-a]pyrimidine-3-carboxamide], the IC50 on PI3Kγ (setting [1]) was below 100 nM; on PI3Kγ (p120γ) (Table 1, p120γ), below 100 nM.

As to `Cc1cc(-c2ccn3nc(N)c(C(=O)NCC(C)(C)O)c3n2)cc2c1C(=O)N([C@@H](C)C1CC1)C2` [Example 203], the IC50 at PI3Kγ (setting [4]) is 100 to 1000 nM; at PI3Kγ (p120γ) (Table 2, p120γ), below 100 nM.

Regarding `Cc1cc(-c2ccn3nc(N)c(C(=O)NC4CC4)c3n2)cc2c1C(=O)N([C@@H]1CCC[C@@H](O)C1)C2` [Example 328], the IC50 at PI3Kγ (setting [4]) was 100 to 1000 nM; at PI3Kγ (p120γ) (Table 2, p120γ) it was below 100 nM.
